Our source for the MIC values is ChEMBL document CHEMBL1240351, “Molecular epidemiology of metallo-beta-lactamase-producing Pseudomonas aeruginosa isolates from Norway and Sweden shows import of international clones and local clonal expansion” (2010).

Holding throughout (type): functional
Assay [1] concerns Pseudomonas aeruginosa. Nature of the assay: Antimicrobial activity against Pseudomonas aeruginosa isolate PA66 producing metallo-beta-lactamase VIM4 by Etest.
The test system of assay [2] is Pseudomonas aeruginosa. Nature of the assay: Antimicrobial activity against Pseudomonas aeruginosa isolate BU-36178 producing metallo-beta-lactamase VIM2 by Etest.
In assay [3] the test system is Pseudomonas aeruginosa. Description: Antimicrobial activity against Pseudomonas aeruginosa isolate K34-7 producing metallo-beta-lactamase VIM2 by Etest.
Assay [4] has as its system Pseudomonas aeruginosa. Description: Antimicrobial activity against Pseudomonas aeruginosa isolate BU-20287 producing metallo-beta-lactamase VIM2 by Etest.
Assay [5] concerns Pseudomonas aeruginosa. Nature of the assay: Antimicrobial activity against Pseudomonas aeruginosa isolate K44-24 producing metallo-beta-lactamase IMP14 by Etest.
Assay [6] concerns Pseudomonas aeruginosa. Nature of the assay: Antimicrobial activity against Pseudomonas aeruginosa isolate OS-210 producing metallo-beta-lactamase VIM2 by Etest.
In assay [7] the test system is Pseudomonas aeruginosa. Description: Antimicrobial activity against Pseudomonas aeruginosa isolate K34-73 producing metallo-beta-lactamase VIM4 by Etest.
In assay [8] the test system is Pseudomonas aeruginosa. Description: Antimicrobial activity against Pseudomonas aeruginosa isolate BU-43038 producing metallo-beta-lactamase VIM2 by Etest.
Assay [9] relates to Pseudomonas aeruginosa. Description: Antimicrobial activity against Pseudomonas aeruginosa isolate B4-25753 producing metallo-beta-lactamase VIM2 by Etest.
Assay [10] concerns Pseudomonas aeruginosa. Nature of the assay: Antimicrobial activity against Pseudomonas aeruginosa isolate BNL-1681 producing metallo-beta-lactamase VIM2 by Etest.
Assay [11] deals with Pseudomonas aeruginosa. Nature of the assay: Antimicrobial activity against Pseudomonas aeruginosa isolate U9-19005 producing metallo-beta-lactamase VIM2 by Etest.
In assay [12] the test system is Pseudomonas aeruginosa. Description: Antimicrobial activity against Pseudomonas aeruginosa isolate K45-32 producing metallo-beta-lactamase VIM2 by Etest.
Assay [13] relates to Pseudomonas aeruginosa. Nature of the assay: Antimicrobial activity against Pseudomonas aeruginosa isolate AK5493 producing metallo-beta-lactamase VIM2 by Etest.

SMILES strings stand for the structures. In brackets after ≈: the same amount, converted by molar mass.

For the compound `NCC[C@H](O)C(=O)N[C@@H]1C[C@H](N)[C@@H](O[C@H]2O[C@H](CN)[C@@H](O)[C@H](O)[C@H]2O)[C@H](O)[C@H]1O[C@H]1O[C@H](CO)[C@@H](O)[C@H](N)[C@H]1O` [AMIKACIN], the MIC in assay [1], in assay [2], in [3], in [4], in assay [5] and in [6] was 32 µg/mL (≈ 54.6 µM) in each case. In addition, the MIC in assay [7], in assay [8], in assay [9], in [10], in assay [11] and in [12] was 32 µg/mL (≈ 54.6 µM) each time. This compound yielded a minimal inhibitory concentration (MIC) in assay [13] of 32 µg/mL (≈ 54.6 µM).
Take `O=C(O)C1=CC[C@@H]2CC(=O)N12` [CARBAPENEM]: the MIC in assay [1], in [2], in assay [3], in [4], in [5] and in [6] was more than 32 µg/mL each time. For the same compound, the MIC in [7], in assay [8], in assay [9], in assay [10], in assay [11] and in [12] was more than 32 µg/mL in each case. Moreover, the MIC in assay [13] was more than 32 µg/mL.
With `CO/N=C(\C(=O)N[C@@H]1C(=O)N2C(C(=O)[O-])=C(C[N+]3(C)CCCC3)CS[C@H]12)c1csc(N)n1` [CEFEPIME], the MIC in assay [1], in assay [2], in assay [3], in [4], in assay [5] and in assay [6] was 32 µg/mL (≈ 66.6 µM) throughout. The MIC in [7], in [8], in assay [9], in [10], in assay [11] and in assay [12] was 32 µg/mL (≈ 66.6 µM) each time. Moreover, inhibition of growth in assay [13] (MIC) required 32 µg/mL (≈ 66.6 µM).
Regarding `CC(C)(O/N=C(\C(=O)N[C@@H]1C(=O)N2C(C(=O)[O-])=C(C[n+]3ccccc3)CS[C@H]12)c1csc(N)n1)C(=O)O` [CEFTAZIDIME], the MIC in assay [1], in [2], in assay [3], in [4], in assay [5] and in assay [6] was 64 µg/mL (≈ 117 µM) in each case. In addition, the MIC in [7], in [8], in [9], in assay [10], in [11] and in assay [12] was 64 µg/mL (≈ 117 µM) in each case. The lowest concentration to inhibit growth in [13] (MIC) was 64 µg/mL (≈ 117 µM).
`O=C(O)c1cn(C2CC2)c2cc(N3CCNCC3)c(F)cc2c1=O` [CIPROFLOXACIN]: the MIC in [1], in assay [2], in assay [3], in assay [4], in assay [5] and in assay [6] was 16 µg/mL (≈ 48.3 µM) each time. Further, the MIC in assay [7], in assay [8], in assay [9], in [10], in [11] and in [12] was 16 µg/mL (≈ 48.3 µM) each time. In [13], 16 µg/mL (≈ 48.3 µM) was the least that counted as inhibitory (MIC).
In the case of `NC[C@H]1O[C@H](O[C@H]2[C@H](O)[C@@H](O[C@H]3O[C@H](CO)[C@@H](O)[C@H](N)[C@H]3O)[C@H](N)C[C@@H]2N)[C@H](N)C[C@@H]1O` [TOBRAMYCIN], the MIC in [1], in assay [2], in assay [3], in assay [4], in [5] and in assay [6] was 32 µg/mL (≈ 68.4 µM) throughout. Further, the MIC in assay [7], in assay [8], in assay [9], in [10], in assay [11] and in assay [12] was 32 µg/mL (≈ 68.4 µM) in each case. This compound registered an MIC in [13] of 32 µg/mL (≈ 68.4 µM).
